From article PMC12391391, “The balance between B55α and Greatwall expression levels predicts sensitivity to Greatwall inhibition in cancer cells” (Nature Communications, 2025)

Assays:
[1] = biological target: T1, Greatwall kinase (GWL, MASTL) (Homo sapiens, UniProt Q96GX5, K72M); test: HTRF kinase assay with purified full-length GWL (K72M) and ENSA; format: biochemical
T1 construct: full-length
T1 sequence (Q96GX5 1-879 K72M): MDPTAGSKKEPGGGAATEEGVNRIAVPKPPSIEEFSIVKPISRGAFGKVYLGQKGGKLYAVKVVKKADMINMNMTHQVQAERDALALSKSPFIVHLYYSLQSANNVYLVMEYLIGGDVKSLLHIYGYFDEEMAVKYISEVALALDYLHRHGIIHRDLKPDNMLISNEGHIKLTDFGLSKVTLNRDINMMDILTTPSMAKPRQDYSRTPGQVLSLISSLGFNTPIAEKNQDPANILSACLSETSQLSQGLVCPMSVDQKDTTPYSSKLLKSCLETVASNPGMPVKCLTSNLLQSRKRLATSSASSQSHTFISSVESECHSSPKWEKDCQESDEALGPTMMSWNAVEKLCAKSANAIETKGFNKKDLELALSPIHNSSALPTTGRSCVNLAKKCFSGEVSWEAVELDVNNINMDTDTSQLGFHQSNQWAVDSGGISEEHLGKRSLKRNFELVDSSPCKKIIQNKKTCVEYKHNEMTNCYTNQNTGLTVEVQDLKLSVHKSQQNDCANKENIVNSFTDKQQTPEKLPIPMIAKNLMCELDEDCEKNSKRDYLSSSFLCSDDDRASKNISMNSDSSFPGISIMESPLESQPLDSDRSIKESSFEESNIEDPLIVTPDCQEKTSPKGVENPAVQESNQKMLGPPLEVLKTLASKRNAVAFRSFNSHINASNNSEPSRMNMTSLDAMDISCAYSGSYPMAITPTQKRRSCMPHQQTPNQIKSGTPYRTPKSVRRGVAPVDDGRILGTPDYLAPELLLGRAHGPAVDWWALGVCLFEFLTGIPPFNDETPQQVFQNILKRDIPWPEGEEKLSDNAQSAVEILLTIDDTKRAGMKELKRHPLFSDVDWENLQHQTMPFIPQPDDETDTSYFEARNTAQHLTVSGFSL

CDK1/cyclinB = CDK1/cyclinB (Homo sapiens, UniProt P06493); test: biochemical; design: CDK1/cyclin B and off-target kinase inhibition assay
Sequence of CDK1/cyclinB (P06493 whole entry): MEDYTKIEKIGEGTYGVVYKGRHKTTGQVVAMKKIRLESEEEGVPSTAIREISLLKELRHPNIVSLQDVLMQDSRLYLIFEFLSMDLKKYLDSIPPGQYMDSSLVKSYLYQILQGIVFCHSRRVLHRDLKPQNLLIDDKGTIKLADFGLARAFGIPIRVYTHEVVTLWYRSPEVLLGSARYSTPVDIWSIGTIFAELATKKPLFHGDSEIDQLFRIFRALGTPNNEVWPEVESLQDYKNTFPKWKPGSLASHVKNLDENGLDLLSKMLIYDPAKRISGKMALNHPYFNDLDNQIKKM
Sequence of CDK1/cyclinB (P14635 whole entry partner): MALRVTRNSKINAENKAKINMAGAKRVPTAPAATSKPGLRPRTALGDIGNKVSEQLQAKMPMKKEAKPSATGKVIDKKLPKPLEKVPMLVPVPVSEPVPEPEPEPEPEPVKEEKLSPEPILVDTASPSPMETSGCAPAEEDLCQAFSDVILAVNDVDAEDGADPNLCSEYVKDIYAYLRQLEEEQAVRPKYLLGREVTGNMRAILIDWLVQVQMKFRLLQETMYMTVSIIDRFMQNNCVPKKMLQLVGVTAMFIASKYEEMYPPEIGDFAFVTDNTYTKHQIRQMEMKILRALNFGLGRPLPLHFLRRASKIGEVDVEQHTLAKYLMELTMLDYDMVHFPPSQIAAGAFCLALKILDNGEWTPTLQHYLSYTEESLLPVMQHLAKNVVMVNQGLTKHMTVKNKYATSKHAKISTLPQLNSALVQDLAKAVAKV

GSK3B = GSK3B (Homo sapiens, UniProt P49841); test: biochemical; design: LanthaScreen kinase activity assay (Thermo Fisher), dose-dependent inhibition by C-604; details: read-out: IC50 (C-604)
Sequence of GSK3B (P49841 whole entry): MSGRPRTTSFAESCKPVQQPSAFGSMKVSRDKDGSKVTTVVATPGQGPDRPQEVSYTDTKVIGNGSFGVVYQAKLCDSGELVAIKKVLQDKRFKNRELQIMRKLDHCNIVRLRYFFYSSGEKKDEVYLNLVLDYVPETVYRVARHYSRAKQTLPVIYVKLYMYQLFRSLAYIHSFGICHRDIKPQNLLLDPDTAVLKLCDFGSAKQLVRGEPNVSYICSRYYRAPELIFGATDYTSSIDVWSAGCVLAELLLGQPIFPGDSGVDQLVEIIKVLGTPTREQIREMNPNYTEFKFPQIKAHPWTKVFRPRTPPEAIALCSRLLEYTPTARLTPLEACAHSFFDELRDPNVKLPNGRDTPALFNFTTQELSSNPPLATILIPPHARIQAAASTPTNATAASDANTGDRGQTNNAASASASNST
Description: (§1) To identify potential C-604 off-targets, we utilised a commercially available off-target screening service (Thermo Fisher Scientific) to assess the impact of C-604 on the in vitro activity of 100 human kinases (Supplementary Fig. 8a). Out of 100 tested targets, C-604 (1 µM) inhibited GWL (inhibition 95%) and an additional 10 kinases (inhibition ≥ 80%). […] The in vitro off-target effects of compound C-604 were determined by assessing its inhibitory potential in a panel of 100 human kinases using the LanthaScreen Kinase Activity Assay (Thermo Fisher Scientific).

HIPK2 = HIPK2 (Homo sapiens, UniProt Q9H2X6); test: biochemical; design: LanthaScreen kinase activity assay (Thermo Fisher), dose-dependent inhibition by C-604; details: read-out: IC50 (C-604)
Sequence of HIPK2 (Q9H2X6 whole entry): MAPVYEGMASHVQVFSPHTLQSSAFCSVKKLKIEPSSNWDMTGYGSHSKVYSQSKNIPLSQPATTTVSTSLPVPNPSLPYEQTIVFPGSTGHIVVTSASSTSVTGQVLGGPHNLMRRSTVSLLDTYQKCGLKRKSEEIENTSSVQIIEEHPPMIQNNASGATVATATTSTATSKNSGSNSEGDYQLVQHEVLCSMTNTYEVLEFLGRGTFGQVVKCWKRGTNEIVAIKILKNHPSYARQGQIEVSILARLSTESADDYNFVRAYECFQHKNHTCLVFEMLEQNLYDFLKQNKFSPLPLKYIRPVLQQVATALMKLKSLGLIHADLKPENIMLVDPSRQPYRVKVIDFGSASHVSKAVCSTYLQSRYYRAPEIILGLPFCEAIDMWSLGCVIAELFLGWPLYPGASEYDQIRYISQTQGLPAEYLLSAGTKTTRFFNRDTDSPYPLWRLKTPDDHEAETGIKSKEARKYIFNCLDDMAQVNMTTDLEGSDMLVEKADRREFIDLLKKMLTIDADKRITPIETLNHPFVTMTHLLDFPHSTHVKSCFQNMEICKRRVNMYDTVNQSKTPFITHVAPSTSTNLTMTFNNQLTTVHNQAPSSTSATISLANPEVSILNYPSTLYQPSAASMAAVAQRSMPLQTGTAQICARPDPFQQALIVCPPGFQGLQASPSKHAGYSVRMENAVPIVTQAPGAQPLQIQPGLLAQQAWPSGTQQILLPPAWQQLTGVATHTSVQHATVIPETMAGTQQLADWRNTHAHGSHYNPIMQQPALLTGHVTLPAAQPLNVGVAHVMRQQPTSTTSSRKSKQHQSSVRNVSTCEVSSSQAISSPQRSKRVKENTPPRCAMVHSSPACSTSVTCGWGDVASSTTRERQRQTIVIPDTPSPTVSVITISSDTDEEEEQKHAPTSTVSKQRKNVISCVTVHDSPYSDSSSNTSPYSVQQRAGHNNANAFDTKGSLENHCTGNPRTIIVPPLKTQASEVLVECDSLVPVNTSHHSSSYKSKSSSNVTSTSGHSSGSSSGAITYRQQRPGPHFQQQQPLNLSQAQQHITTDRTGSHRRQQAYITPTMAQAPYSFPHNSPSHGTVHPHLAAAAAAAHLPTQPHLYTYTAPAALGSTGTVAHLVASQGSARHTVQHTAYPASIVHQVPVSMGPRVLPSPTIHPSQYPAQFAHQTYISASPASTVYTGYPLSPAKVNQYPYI
Description: as §1

MAP3K9 = MAP3K9 (Homo sapiens, UniProt P80192); test: biochemical; design: LanthaScreen kinase activity assay (Thermo Fisher), dose-dependent inhibition by C-604; details: read-out: IC50 (C-604)
Sequence of MAP3K9 (P80192 whole entry): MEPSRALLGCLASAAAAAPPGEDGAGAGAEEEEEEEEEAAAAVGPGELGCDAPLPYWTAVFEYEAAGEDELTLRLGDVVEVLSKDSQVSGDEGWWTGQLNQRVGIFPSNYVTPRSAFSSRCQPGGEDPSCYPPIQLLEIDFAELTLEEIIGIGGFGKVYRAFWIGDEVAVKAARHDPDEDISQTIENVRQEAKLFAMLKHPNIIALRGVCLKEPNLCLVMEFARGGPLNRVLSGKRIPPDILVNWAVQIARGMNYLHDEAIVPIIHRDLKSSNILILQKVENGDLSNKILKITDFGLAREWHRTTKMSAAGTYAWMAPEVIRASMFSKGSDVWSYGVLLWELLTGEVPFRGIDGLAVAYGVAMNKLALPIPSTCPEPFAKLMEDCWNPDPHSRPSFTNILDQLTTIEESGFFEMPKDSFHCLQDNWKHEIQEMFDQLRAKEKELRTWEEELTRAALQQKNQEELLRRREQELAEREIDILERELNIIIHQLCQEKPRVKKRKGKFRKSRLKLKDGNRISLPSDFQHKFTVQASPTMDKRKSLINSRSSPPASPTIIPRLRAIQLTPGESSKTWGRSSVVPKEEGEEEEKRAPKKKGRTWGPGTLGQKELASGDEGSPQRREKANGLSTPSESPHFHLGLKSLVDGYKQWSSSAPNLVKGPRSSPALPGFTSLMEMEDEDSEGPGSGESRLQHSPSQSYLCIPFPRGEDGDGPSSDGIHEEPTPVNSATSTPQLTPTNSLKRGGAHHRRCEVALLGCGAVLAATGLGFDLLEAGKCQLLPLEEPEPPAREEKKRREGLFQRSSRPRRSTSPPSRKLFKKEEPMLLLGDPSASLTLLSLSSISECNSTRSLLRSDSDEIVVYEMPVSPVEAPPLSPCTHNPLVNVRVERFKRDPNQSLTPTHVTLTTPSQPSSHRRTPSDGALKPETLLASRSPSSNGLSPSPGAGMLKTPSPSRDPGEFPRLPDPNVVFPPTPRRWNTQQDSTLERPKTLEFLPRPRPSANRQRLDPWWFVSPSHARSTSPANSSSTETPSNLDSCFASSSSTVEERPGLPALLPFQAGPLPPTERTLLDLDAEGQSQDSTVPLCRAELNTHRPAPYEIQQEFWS
Description: as §1

MARK3 = MARK3 (Homo sapiens, UniProt P27448); test: biochemical; design: LanthaScreen kinase activity assay (Thermo Fisher), dose-dependent inhibition by C-604; details: read-out: IC50 (C-604)
Sequence of MARK3 (P27448 whole entry): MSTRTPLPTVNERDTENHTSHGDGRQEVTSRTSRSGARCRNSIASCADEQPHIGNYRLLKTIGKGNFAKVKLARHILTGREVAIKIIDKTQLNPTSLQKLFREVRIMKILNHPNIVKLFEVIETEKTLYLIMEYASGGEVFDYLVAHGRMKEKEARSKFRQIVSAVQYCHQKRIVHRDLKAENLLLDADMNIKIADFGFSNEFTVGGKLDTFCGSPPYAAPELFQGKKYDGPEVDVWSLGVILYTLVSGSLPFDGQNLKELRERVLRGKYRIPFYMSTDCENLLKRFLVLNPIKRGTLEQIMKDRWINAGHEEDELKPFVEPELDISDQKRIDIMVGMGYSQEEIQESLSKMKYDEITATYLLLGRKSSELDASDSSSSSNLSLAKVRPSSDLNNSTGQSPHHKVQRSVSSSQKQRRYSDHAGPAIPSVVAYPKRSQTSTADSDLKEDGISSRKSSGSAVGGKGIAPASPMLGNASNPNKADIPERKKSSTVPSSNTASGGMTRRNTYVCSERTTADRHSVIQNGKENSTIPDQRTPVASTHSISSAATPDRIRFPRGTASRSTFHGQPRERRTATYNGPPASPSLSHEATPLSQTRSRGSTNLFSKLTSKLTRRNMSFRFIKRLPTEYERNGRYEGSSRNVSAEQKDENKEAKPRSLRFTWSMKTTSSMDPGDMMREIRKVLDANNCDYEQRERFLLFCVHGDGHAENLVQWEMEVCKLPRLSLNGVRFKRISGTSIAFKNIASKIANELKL
Description: as §1

MELK = MELK (Homo sapiens, UniProt Q14680); test: biochemical; design: LanthaScreen kinase activity assay (Thermo Fisher), dose-dependent inhibition by C-604; details: read-out: IC50 (C-604)
Sequence of MELK (Q14680 whole entry): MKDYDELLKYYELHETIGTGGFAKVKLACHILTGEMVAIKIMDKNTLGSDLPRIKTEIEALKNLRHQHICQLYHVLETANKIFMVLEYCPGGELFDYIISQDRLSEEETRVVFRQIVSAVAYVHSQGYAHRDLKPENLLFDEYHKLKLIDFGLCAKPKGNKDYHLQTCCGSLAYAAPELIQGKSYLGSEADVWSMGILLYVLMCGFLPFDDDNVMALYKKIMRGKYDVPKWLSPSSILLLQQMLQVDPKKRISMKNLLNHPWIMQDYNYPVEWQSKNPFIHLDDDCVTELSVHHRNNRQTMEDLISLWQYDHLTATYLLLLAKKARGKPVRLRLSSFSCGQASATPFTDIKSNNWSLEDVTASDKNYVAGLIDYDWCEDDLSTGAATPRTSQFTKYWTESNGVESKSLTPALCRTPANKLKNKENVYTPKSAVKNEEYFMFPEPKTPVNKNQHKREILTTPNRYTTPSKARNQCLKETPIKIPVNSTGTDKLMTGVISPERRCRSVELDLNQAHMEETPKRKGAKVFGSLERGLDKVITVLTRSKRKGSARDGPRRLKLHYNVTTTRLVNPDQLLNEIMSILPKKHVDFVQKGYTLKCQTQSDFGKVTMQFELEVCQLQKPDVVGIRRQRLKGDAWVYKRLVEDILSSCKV
Description: as §1

ULK2 = biological target: T2, ULK2 (Homo sapiens, UniProt Q8IYT8); test: biochemical; design: LanthaScreen kinase activity assay (Thermo Fisher), dose-dependent inhibition by C-604; details: read-out: IC50 (C-604)
T2 sequence (Q8IYT8 1-1036): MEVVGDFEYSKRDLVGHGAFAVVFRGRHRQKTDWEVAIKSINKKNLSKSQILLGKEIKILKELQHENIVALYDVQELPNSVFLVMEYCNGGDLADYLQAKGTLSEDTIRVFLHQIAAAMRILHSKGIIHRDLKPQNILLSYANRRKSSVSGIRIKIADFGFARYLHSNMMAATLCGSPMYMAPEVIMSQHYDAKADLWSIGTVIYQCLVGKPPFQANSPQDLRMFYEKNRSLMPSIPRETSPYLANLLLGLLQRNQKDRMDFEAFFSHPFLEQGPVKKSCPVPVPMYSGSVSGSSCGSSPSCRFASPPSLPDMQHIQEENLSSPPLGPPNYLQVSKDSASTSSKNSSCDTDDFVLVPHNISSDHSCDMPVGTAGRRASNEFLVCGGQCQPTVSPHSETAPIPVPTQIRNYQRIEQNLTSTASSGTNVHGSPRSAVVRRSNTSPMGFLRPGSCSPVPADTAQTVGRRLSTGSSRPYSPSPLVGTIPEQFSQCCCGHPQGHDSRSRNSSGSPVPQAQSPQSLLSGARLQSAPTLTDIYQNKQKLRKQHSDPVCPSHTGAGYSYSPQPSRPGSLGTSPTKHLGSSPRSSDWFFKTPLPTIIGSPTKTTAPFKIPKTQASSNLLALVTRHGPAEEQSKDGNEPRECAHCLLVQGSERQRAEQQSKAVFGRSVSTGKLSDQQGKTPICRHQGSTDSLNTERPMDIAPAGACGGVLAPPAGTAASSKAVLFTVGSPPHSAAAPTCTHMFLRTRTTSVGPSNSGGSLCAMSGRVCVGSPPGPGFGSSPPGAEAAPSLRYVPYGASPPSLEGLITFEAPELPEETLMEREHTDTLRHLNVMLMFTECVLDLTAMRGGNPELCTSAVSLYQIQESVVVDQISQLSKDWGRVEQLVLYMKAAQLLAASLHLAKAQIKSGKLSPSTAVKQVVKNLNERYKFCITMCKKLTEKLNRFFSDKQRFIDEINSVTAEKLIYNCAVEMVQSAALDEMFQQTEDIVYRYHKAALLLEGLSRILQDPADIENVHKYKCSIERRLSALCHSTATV
Description: as §1

IC50 [1]: 9 ± 7.7 nM
IC50 (CDK1/cyclinB): > 30 µM
IC50 (GSK3B): 283 nM
IC50 (HIPK2): 43 nM
IC50 (MAP3K9): 29.3 nM
IC50 (MARK3): 480 nM
IC50 (MELK): 16.9 nM
IC50 (ULK2): 21.6 nM
Compound: CNC(=O)c1c[nH]c2ncc(-c3ccc(OCCN4CCC(c5ccccc5)C4)cc3)nc12 (racemic) [compound 21, C-604]
